Experimental data published in publication PMC8607231, “Generation of KS-133 as a Novel Bicyclic Peptide with a Potent and Selective VIPR2 Antagonist Activity that Counteracts Cognitive Decline in a Mouse Model of Psychiatric Disorders” (Frontiers in Pharmacology, 2021).
Where a SMILES comes first, the peptide text is derived from it. Bridges are numbered along the chain shown (N, C = ends).

Experiments:
[1] = molecular target: T1, human PAC1 (Homo sapiens, UniProt P41586); experiment: Calcium influx assay, antagonist activity against PACAP-PAC1 signaling; format: cell-based; details: ligand PACAP (35 nM) at EC80; CHO-K1 cells; n = 4 wells, ± S.E.M; read-out: Ca influx assay [IC50 (nM)] PAC1
T1 construct: host or cells: CHO-K1
T1 sequence (P41586 21-468): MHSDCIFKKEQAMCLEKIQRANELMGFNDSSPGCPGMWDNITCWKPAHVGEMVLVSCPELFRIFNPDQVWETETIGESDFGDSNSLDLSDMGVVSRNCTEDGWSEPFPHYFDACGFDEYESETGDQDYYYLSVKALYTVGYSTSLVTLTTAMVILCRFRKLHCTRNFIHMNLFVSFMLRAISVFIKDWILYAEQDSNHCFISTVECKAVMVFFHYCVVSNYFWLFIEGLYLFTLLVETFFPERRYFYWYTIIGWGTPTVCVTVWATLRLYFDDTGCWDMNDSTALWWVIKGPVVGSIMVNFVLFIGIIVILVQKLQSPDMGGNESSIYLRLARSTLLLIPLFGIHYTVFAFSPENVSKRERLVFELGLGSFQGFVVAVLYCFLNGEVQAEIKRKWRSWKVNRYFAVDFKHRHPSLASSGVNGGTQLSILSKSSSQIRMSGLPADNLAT
Method: (§1) Evaluation of antagonist activities of peptides against VIP-VIPR1, VIP-VIPR2, and PACAP-PAC1 signaling pathways and agonistic activity of KS-133 at VIPR2 was carried out by Eurofins DiscoverX (Fremont, CA, United States). Intracellular calcium mobilization was monitored using a calcium-sensitive dye loaded in CHO-K1 cells expressing human VIPR1 (ITEM 86-0030P-2243AN), VIPR2 (ITEM 86-0030P-2244AN), and PAC1 (ITEM 86-0030P-2066AN). The cells were preincubated with antagonistic peptides for 30 min at room temperature in the dark. After addition of the ligand at EC80, calcium mobilization was immediately monitored by FLIPR Tetra for 2 min. Cyclic AMP production in CHO-K1 cells expressing human VIPR2 was evaluated using HitHunter® cAMP assays (antagonist mode: ITEM 86-0007P-2362AN; agonist mode: ITEM 86-0007P-2362AG). The cells were preincubated with antagonistic peptides for 30 min at room temperature. After addition of the ligand at EC80, cells were further incubated for 30 min at room temperature. Cells were lysed and the cAMP content of the cell lysate was determined by the β-galactosidase-based enzyme fragment complementation assay ([Eglen, 2002]). IC50 values were estimated by the following equation: IC50 = 10^[Log(A/B) × (50–D)/(C–D) + Log(B)], where A is the concentration at >50% inhibition, B is the concentration at <50% inhibition, C is the inhibition rate at concertation A, and D is the inhibition rate at concertation B.
First, the antagonistic activities of parental VIpep-3, KS-132, KS-133 (monocyclic) (no bridging between Lys^7 and Asp^11), and KS-133 against human VIPR1, VIPR2, and PAC1 were evaluated by a calcium influx assay. After antagonistic peptide treatment for 30 min, ligand at a concentration of EC80 was added to the cells and then calcium signaling was measured.
FIGURE 3 Antagonistic/agonistic activities of peptides in the calcium influx and cAMP assays. For evaluation of the antagonistic activity, the cells were preincubated with antagonistic peptides for 30 min. In the calcium influx assay, after addition of ligand at EC80, calcium mobilization was monitored immediately (see details in the Methods section) (n = 4 wells for each treatment). In the cAMP assay, after a 30 min incubation with the ligand at EC80, cAMP production in cells was measured (see details in the Methods section) (n = 4 wells for each treatment).

[2] = molecular target: T2, human VIPR2 (Homo sapiens, UniProt P41587); experiment: HitHunter cAMP assay, antagonist mode; format: cell-based
T2 construct: host or cells: CHO-K1
T2 sequence (P41587 24-438): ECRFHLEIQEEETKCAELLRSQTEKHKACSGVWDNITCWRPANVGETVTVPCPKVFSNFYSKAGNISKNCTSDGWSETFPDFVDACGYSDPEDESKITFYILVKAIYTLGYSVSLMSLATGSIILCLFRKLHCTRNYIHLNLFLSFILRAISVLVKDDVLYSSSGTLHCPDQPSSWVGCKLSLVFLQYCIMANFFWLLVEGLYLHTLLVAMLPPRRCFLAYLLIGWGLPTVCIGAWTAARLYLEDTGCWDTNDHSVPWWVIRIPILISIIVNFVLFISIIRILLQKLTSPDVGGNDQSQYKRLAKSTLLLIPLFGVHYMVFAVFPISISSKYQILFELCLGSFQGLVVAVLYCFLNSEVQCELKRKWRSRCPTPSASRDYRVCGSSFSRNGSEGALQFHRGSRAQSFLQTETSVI
Method: as §1, with “The cells were preincubated with antagonistic peptides for 30 min at room temperature. After addition of the ligand at EC80, cells were further incubated for 30 min at room temperature.” left out, “IC50 values were estimated by the following equation: IC50 = 10^[Log(A/B) × (50–D)/(C–D) + Log(B)], where A is the concentration at >50% inhibition, B is the concentration at <50% inhibition, C is the inhibition rate at concertation A, and D is the inhibition rate at concertation B.” left out
FIGURE 3 Antagonistic/agonistic activities of peptides in the calcium influx and cAMP assays. […] In the calcium influx assay, after addition of ligand at EC80, calcium mobilization was monitored immediately (see details in the Methods section) (n = 4 wells for each treatment). […]
Next, antagonistic and agonistic activities of KS-133 at VIPR2 were evaluated by a cAMP assay. […]

CC[C@H](C)[C@H](NC(=O)[C@H](CC(C)C)NC(=O)[C@@H]1CC(=O)NCCCC[C@@H]2NC(=O)[C@@H]3CCCN3C(=O)[C@H](CC(C)C)NC(=O)[C@H](Cc3ccc(O)cc3)NC(=O)[C@@H]3CCCN3C(=O)[C@@H]3CCCN3C(=O)[C@@H](NC(C)=O)CSSC[C@H](NC(=O)[C@H](CC(C)C)NC(=O)[C@H](Cc3ccc(O)cc3)NC2=O)C(=O)N1)C(N)=O [KS-133, Ac-c[Cys-Pro-Pro-Tyr-Leu-Pro-c(Lys-Tyr-Leu-Cys]-Asp)-Leu-Ile-NH2] (Ac-CPPYLPKYLCDLI-NH2; disulfide 1-10; lactam 7-11)
IC50 [1]: > 5000 nM | Antagonism of VIP-VIPR2 signaling pathway ([2]; cAMP assay): antagonized VIP-VIPR2 signaling pathway in a peptide concentration-dependent manner | IC50 ([2]; ligand VIP (0.5 nM) at EC80, CHO-K1 cells, n = 4 wells, ± S.E.M): 500 ± 79 nM
